Experimental findings from patent US8450304B2, “4-azetidinyl-1-heteroaryl-cyclohexanol antagonists of CCR2” (Janssen Pharmaceutica N.V., priority 2008, dated 2013) are described below.

The structures appear in SMILES notation.

For orientation: IC50 means the concentration that gives 50% inhibition.

The target of the assay is T1, CCR2 (Homo sapiens, UniProt P41597).
T1 construct: host or cells: THP-1 (human monocytic cell line), whole cells
Briefly: MCP-1 Receptor Binding Assay in THP-1 Cells. The settings on record: 0.5 nM 125I labeled MCP-1, 2 hours at 30° C., read-out: Inhibition of MCP-1 Binding IC50, CCR2 Binding. On the procedure:
Compounds of the invention were subjected to various representative biological tests. […] MCP-1 Receptor Binding Assay in THP-1 Cells
Human monocytic cell line THP-1 cells were obtained from American Type Culture Collection (Manassas, Va., USA). […] The cell density was maintained […].
1 μM cold MCP-1 was used for nonspecific binding.

T1 sequence (P41597 whole entry): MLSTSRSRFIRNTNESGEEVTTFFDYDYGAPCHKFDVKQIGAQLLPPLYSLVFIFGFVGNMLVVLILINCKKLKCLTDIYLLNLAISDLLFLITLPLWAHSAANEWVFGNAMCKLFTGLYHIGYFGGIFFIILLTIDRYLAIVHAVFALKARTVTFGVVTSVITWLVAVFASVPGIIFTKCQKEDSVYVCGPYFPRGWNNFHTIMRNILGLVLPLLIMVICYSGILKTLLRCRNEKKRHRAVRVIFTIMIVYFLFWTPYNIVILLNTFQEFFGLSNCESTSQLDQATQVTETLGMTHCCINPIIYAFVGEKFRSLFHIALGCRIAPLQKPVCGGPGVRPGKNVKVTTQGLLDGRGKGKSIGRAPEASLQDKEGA

In the case of `O=C(CNC(=O)c1cc(F)cc(C(F)(F)F)c1)NC1CN(C2CCC(O)(c3cncs3)CC2)C1` (stereo not shown) [Example 65, 3-Fluoro-N-{[1-(4-hydroxy-4-thiazol-5-yl-cyclohexyl)-azetidin-3-ylcarbamoyl]-methyl}-5-trifluoromethyl-benzamide], the IC50 amounted to 70 nM.

For `C[S+]([O-])c1ncc(C2(O)CCC(N3CC(NC(=O)CNC(=O)c4cccc(C(F)(F)F)c4)C3)CC2)s1` (single isomer, unassigned) [Example 46, N-({1-[4-Hydroxy-4-(2-methanesulfinyl-thiazol-5-yl)-cyclohexyl]-azetidin-3-ylcarbamoyl}-methyl)-3-trifluoromethyl-benzamide], the IC50 is 660 nM.

Take `CN(C)Cc1ncc(C2(O)CCC(N3CC(NC(=O)CNC(=O)c4cccc(C(F)(F)F)c4)C3)CC2)s1` (stereo not shown) [Example 56, N-({1-[4-(2-Dimethylaminomethyl-thiazol-5-yl)-4-hydroxy-cyclohexyl]-azetidin-3-ylcarbamoyl}-methyl)-3-trifluoromethyl-benzamide]: the IC50 turned out to be 310 nM.

Consider `N#CNc1ncc(C2(O)CCC(N3CC(NC(=O)CNC(=O)c4cccc(C(F)(F)F)c4)C3)CC2)s1` (stereo not shown) [Example 55, N-({1-[4-(2-Cyanoamino-thiazol-5-yl)-4-hydroxy-cyclohexyl]-azetidin-3-ylcarbamoyl}-methyl)-3-trifluoromethyl-benzamide], for which the IC50 is 1200 nM.

For the compound `O=C(CNC(=O)c1cccc(C(F)(F)F)c1)NC1CN(C2CCC(O)(c3nc4ccc(Br)cc4s3)CC2)C1` (single isomer, unassigned) [Example 36a, N-({1-[4-(6-Bromo-benzothiazol-2-yl)-4-hydroxy-cyclohexyl]-azetidin-3-ylcarbamoyl}-methyl)-3-trifluoromethyl-benzamide], the IC50 was determined as 3.8 nM.

`O=C(CNC(=O)c1cc(C(F)(F)F)ccc1C(F)(F)F)NC1CN(C2CCC(O)(c3nccs3)CC2)C1` (stereo not shown) [Example 68, N-{[1-(4-Hydroxy-4-thiazol-2-yl-cyclohexyl)-azetidin-3-ylcarbamoyl]-methyl}-2,5-bis-trifluoromethyl-benzamide]: the IC50 turned out to be 500 nM.

Turning to `COc1ccc(C2(O)CCC(N3CC(NC(=O)CNC(=O)c4ccc5c(c4)OCO5)C3)CC2)cn1` (stereo not shown) [Example 20, Benzo[1,3]dioxole-5-carboxylic acid ({1-[4-hydroxy-4-(6-methoxy-pyridin-3-yl)-cyclohexyl]-azetidin-3-ylcarbamoyl}-methyl)-amide], the IC50 is 6900 nM.

As for `COc1ccc(C2(O)CCC(N3CC(NC(=O)CNC(=O)c4ccc(C(F)(F)F)cc4)C3)CC2)cn1` (stereo not shown) [Example 16, N-({1-[4-Hydroxy-4-(6-methoxy-pyridin-3-yl)-cyclohexyl]-azetidin-3-ylcarbamoyl}-methyl)-4-trifluoromethyl-benzamide], the IC50 was 6450 nM.

As to `COc1ccc(C2(O)CCC(N3CC(NC(=O)CNC(=O)c4cccc(C)c4)C3)CC2)cn1` (stereo not shown) [Example 22, N-({1-[4-Hydroxy-4-(6-methoxy-pyridin-3-yl)-cyclohexyl]-azetidin-3-ylcarbamoyl}-methyl)-3-methyl-benzamide], the IC50 stood at 2300 nM.

For the compound `C[Si](C)(C)c1ncc(C2(O)CCC(N3CC(NC(=O)CNC(=O)c4cccc(C(F)(F)F)c4)C3)CC2)s1` (single isomer, unassigned) [Example 39a, N-({1-[4-Hydroxy-4-(2-trimethylsilanyl-thiazol-5-yl)-cyclohexyl]-azetidin-3-ylcarbamoyl}-methyl)-3-trifluoromethyl-benzamide], the IC50 was determined as 13 nM.

Consider `CS(=O)(=O)c1ncc(C2(O)CCC(N3CC(NC(=O)CNC(=O)c4cccc(C(F)(F)F)c4)C3)CC2)s1` (single isomer, unassigned) [Example 47a, N-({1-[4-Hydroxy-4-(2-methanesulfonyl-thiazol-5-yl)-cyclohexyl]-azetidin-3-ylcarbamoyl}-methyl)-3-trifluoromethyl-benzamide], for which the IC50 came to 260 nM.

In the case of `Cc1ncc(C2(O)CCC(N3CC(NC(=O)CNC(=O)c4cccc(C(F)(F)F)c4)C3)CC2)s1` (single isomer, unassigned) [Example 41a, N-({1-[4-Hydroxy-4-(2-methyl-thiazol-5-yl)-cyclohexyl]-azetidin-3-ylcarbamoyl}-methyl)-3-trifluoromethyl-benzamide], the IC50 came to 200 nM.

Regarding `O=C(CNC(=O)c1cccc(C(F)(F)F)c1)NC1CN(C2CCC(O)(c3cnc(N4CCCC4)s3)CC2)C1` (stereo not shown) [Example 51, N-({1-[4-Hydroxy-4-(2-pyrrolidin-1-yl-thiazol-5-yl)-cyclohexyl]-azetidin-3-ylcarbamoyl}-methyl)-3-trifluoromethyl-benzamide], the IC50 came to 3300 nM.

For `COc1ncc(C2(O)CCC(N3CC(NC(=O)CNC(=O)c4cccc(C(F)(F)F)c4)C3)CC2)cn1` (single isomer, unassigned) [Example 28a, N-({1-[4-Hydroxy-4-(2-methoxy-pyrimidin-5-yl)-cyclohexyl]-azetidin-3-ylcarbamoyl}-methyl)-3-trifluoromethyl-benzamide], the IC50 was found to be 1100 nM.

As for `Cn1cc(Br)c(C2(O)CCC(N3CC(NC(=O)CNC(=O)c4cccc(C(F)(F)F)c4)C3)CC2)n1` (single isomer, unassigned) [Example 31a, N-({1-[4-(4-Bromo-1-methyl-1H-pyrazol-3-yl)-4-hydroxy-cyclohexyl]-azetidin-3-ylcarbamoyl}-methyl)-3-trifluoromethyl-benzamide], the IC50 amounted to 440 nM.

As for `O=C(CNC(=O)c1cccc(C(F)(F)F)c1)NC1CN(C2CCC(O)(c3ncc(CO)s3)CC2)C1` (single isomer, unassigned) [Example 35a, N-({1-[4-Hydroxy-4-(5-hydroxymethyl-thiazol-2-yl)-cyclohexyl]-azetidin-3-ylcarbamoyl}-methyl)-3-trifluoromethyl-benzamide], the half-inhibitory concentration (IC50) is 240 nM.

With `COc1ccc(C2(O)CCC(N3CC(NC(=O)CNC(=O)c4cccc(Cl)c4)C3)CC2)cn1` (stereo not shown) [Example 24, 3-Chloro-N-({1-[4-hydroxy-4-(6-methoxy-pyridin-3-yl)-cyclohexyl]-azetidin-3-ylcarbamoyl}-methyl)-benzamide], the IC50 is 1600 nM.

As for `COc1ccc(C2(O)CCC(N3CC(NC(=O)CNC(=O)c4cc(F)cc(F)c4)C3)CC2)cn1` (stereo not shown) [Example 19, 3,5-Difluoro-N-({1-[4-hydroxy-4-(6-methoxy-pyridin-3-yl)-cyclohexyl]-azetidin-3-ylcarbamoyl}-methyl)-benzamide], the IC50 was 4300 nM.

Turning to `Cc1ccc(C2(O)CCC(N3CC(NC(=O)CNC(=O)c4cc(C(F)(F)F)ccc4C(F)(F)F)C3)CC2)cn1` (single isomer, unassigned) [Example 69a, N-({1-[4-Hydroxy-4-(6-methyl-pyridin-3-yl)-cyclohexyl]-azetidin-3-ylcarbamoyl}-methyl)-2,5-bis-trifluoromethyl-benzamide], the IC50 stood at 240 nM.

For the compound `Cc1csc(C2(O)CCC(N3CC(NC(=O)CNC(=O)c4cccc(C(F)(F)F)c4)C3)CC2)n1` (single isomer, unassigned) [Example 38a, N-({1-[4-Hydroxy-4-(4-methyl-thiazol-2-yl)-cyclohexyl]-azetidin-3-ylcarbamoyl}-methyl)-3-trifluoromethyl-benzamide], the IC50 amounted to 370 nM.

Turning to `COc1cccc(C(=O)NCC(=O)NC2CN(C3CCC(O)(c4ccc(OC)nc4)CC3)C2)c1` (stereo not shown) [Example 23, N-({1-[4-Hydroxy-4-(6-methoxy-pyridin-3-yl)-cyclohexyl]-azetidin-3-ylcarbamoyl}-methyl)-3-methoxy-benzamide], the IC50 came to 14500 nM.

Take `O=C(CNC(=O)c1cccc(C(F)(F)F)c1)NC1CN(C2CCC(O)(c3cc(Br)cs3)CC2)C1` (stereo not shown) [Example 60, N-({1-[4-(4-Bromo-thiophen-2-yl)-4-hydroxy-cyclohexyl]-azetidin-3-ylcarbamoyl}-methyl)-3-trifluoromethyl-benzamide]: the IC50 was 230 nM.

Consider `COc1ccc(C2(O)CCC(N3CC(NC(=O)CNC(=O)c4cc(F)c(F)c(F)c4)C3)CC2)cn1` (stereo not shown) [Example 17, 3,4,5-Trifluoro-N-({1-[4-hydroxy-4-(6-methoxy-pyridin-3-yl)-cyclohexyl]-azetidin-3-ylcarbamoyl}-methyl)-benzamide], for which the IC50 was 6400 nM.

As to `Cc1ccc(C2(O)CCC(N3CC(NC(=O)CNC(=O)c4cc(C(F)(F)F)ccc4Cl)C3)CC2)cn1` (single isomer, unassigned) [Example 70a, 2-Chloro-N-({1-[4-hydroxy-4-(6-methyl-pyridin-3-yl)-cyclohexyl]-azetidin-3-ylcarbamoyl}-methyl)-5-trifluoromethyl-benzamide], the IC50 is 590 nM.

With `CC(C)(C)Oc1ncc(C2(O)CCC(N3CC(NC(=O)CNC(=O)c4cccc(C(F)(F)F)c4)C3)CC2)s1` (stereo not shown) [Example 54, N-({1-[4-(2-tert-Butoxy-thiazol-5-yl)-4-hydroxy-cyclohexyl]-azetidin-3-ylcarbamoyl}-methyl)-3-trifluoromethyl-benzamide], the IC50 was 280 nM.

On to `Cc1cc(C2(O)CCC(N3CC(NC(=O)CNC(=O)c4cccc(C(F)(F)F)c4)C3)CC2)sn1` (single isomer, unassigned) [Example 58a, N-({1-[4-Hydroxy-4-(3-methyl-isothiazol-5-yl)-cyclohexyl]-azetidin-3-ylcarbamoyl}-methyl)-3-trifluoromethyl-benzamide], for which the IC50 turned out to be 90 nM.

As to `COc1ccc(C2(O)CCC(N3CC(NC(=O)CNC(=O)c4ccc(Cl)c(Cl)c4)C3)CC2)cn1` (stereo not shown) [Example 18, 3,4-Dichloro-N-({1-[4-hydroxy-4-(6-methoxy-pyridin-3-yl)-cyclohexyl]-azetidin-3-ylcarbamoyl}-methyl)-benzamide], the IC50 was 120 nM.

On to `Cc1ccc(C2(O)CCC(N3CC(NC(=O)CNC(=O)c4cc(C(F)(F)F)cc(C(F)(F)F)c4)C3)CC2)cn1` (single isomer, unassigned) [Example 66a, N-({1-[4-Hydroxy-4-(6-methyl-pyridin-3-yl)-cyclohexyl]-azetidin-3-ylcarbamoyl}-methyl)-3,5-bis-trifluoromethyl-benzamide], for which the IC50 stood at 330 nM.
